According to patent US6872689B1, “Water-dispersible agrochemical compositions” (Agform, Ltd., priority 1999, dated 2005):

Assay type: physicochemical
Experimental: 200 mls water was poured into a jacketed glass vessel and allowed to reach 25 C. A Grant recirculator was used to maintain the temperature at 25 C+/−1 C. A magnetic stirrer at a set speed was used to stir the water. The specified weight of granules was then added to the water and allowed to disperse for 30 seconds before a timer was started. A 2 mls sample was removed using a syringe after 5 minutes and filtered using a 0.45 micron syringe filter. The solution was then analysed to determine the active concentration using a HPLC method.

COc1nc(C)nc(NC(=O)NS(=O)(=O)c2ccccc2Cl)n1 [Airmilled technical, Chlorsulfuron]
solubility in distilled water (in words): not readily soluble | % active added to water that dissolved after 5 minutes (chlorsulfuron, dilution rate 91 mgs a.i./L, distilled water, 25 C): <2%
